Source: publication PMC6563716 (Helvetica Chimica Acta, 2019)

target: T1, human 15-lipoxygenase-1 (15-LOX-1) (Homo sapiens, UniProt P16050); assay: UV absorption assay; format: biochemical
T1 sequence (P16050 2-662): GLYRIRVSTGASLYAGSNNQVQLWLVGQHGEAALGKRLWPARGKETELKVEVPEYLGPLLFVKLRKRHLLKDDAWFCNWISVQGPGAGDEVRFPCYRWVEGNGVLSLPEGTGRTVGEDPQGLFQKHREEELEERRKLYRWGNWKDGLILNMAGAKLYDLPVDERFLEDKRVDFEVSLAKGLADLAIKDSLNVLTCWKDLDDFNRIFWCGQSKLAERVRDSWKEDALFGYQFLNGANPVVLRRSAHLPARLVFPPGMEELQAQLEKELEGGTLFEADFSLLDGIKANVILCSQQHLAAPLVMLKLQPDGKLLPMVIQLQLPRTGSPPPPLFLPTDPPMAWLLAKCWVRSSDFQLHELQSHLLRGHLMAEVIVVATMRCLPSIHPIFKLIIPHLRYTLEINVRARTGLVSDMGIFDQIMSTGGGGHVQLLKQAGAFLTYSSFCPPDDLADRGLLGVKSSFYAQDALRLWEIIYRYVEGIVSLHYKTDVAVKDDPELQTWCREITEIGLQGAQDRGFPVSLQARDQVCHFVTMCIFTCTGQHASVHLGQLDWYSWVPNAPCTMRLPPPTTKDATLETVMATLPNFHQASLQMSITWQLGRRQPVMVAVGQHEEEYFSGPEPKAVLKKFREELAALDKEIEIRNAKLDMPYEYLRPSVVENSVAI

IC50 [µM] | Compound
42 ± 4 | COc1cc(C=NNC(=O)CC(C)CCCC(C)C)ccc1O (racemic) [compound 4, N ′‐[(4‐Hydroxy‐3‐methoxyphenyl)methylidene]‐3,7‐dimethyloctanehydrazide]
59 ± 7 | CC(C)CCCC(C)CC(=O)NN=Cc1cccs1 (racemic) [compound 2, 3,7‐Dimethyl‐N′‐(thiophen‐2‐ylmethylene)octanehydrazide]
16 ± 6 | CC(C)CCCC(C)CC(=O)NN=Cc1cccnc1 (racemic) [compound 17, 3,7‐Dimethyl‐N′‐[(pyridin‐3‐yl)methylidene]octanehydrazide]
